# Reference: ChEMBL document CHEMBL4417631, “Oral peptide inhibitors of interleukin-23 receptor and their use to treat inflammatory bowel diseases” (2017)
# What was measured:
# Interleukin-23 receptor [1] = molecular target: T1, Interleukin-23 receptor (Homo sapiens, UniProt Q5VWK5); test: Inhibition of interleukin-23 binding to human interleukin-23 receptor incubated for 2 hrs by competitive binding ELISA
# T1 sequence (Q5VWK5 whole entry): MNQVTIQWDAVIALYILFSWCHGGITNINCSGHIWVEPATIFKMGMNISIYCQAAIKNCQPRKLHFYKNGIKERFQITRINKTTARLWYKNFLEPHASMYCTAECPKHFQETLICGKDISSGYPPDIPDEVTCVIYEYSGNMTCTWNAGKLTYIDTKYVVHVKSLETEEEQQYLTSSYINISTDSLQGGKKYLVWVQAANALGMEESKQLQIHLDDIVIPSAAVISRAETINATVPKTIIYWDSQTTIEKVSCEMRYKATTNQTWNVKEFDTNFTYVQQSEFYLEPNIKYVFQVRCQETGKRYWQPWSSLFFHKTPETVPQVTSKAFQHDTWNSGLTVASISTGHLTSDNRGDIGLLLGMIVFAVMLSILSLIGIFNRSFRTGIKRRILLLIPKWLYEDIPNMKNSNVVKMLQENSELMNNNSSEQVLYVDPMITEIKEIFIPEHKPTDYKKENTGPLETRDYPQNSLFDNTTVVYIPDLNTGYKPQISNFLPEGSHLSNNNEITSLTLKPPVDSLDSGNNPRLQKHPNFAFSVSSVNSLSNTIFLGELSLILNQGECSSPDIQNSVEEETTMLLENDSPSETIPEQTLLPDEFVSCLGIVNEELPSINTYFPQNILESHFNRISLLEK
# [2] = Half life in simulated intestinal fluid at 20 uM by LC-MS/MS analysis; format: ADME
# Interleukin-23 receptor [3] = molecular target: T1, Interleukin-23 receptor; test: Inhibition of interleukin-23 receptor in human DB cells assessed as reduction in IL-23-stimulated STAT3 phosphorylation incubated for 30 mins by HTRF assay; format: cell-based
# [4] = Half life in simulated gastric fluid at 20 uM by LC-MS/MS analysis; format: ADME
Compound,IC50 (Interleukin-23 receptor [1]) [nM],half-life at 20 µM [2] [min],IC50 (Interleukin-23 receptor [3]) [nM],half-life at 20 µM [4] [min]
CC(=O)NCCCC[C@H](NC(=O)C(C)(C)NC(=O)[C@H](Cc1ccc2ccccc2c1)NC(=O)[C@H](Cc1ccc(OCCN)cc1)NC(=O)[C@@H]1CSCC[C@H](NC(C)=O)C(=O)N[C@@H](CCC(N)=O)C(=O)N[C@@H]([C@@H](C)O)C(=O)N[C@@H](Cc2c[nH]c3ccccc23)C(=O)N[C@@H](CCC(N)=O)C(=O)N1)C(=O)N[C@@H](CCC(N)=O)C(=O)NCC(N)=O,10 to 25,120 to 180,< 10,< 60
CC(=O)NCCCC[C@H](NC(=O)C(C)(C)NC(=O)[C@H](Cc1ccc2ccccc2c1)NC(=O)[C@H](Cc1ccc(OCCN)cc1)NC(=O)[C@@H]1CSCC[C@H](NC(C)=O)C(=O)N[C@@H](CCC(N)=O)C(=O)N[C@@H]([C@@H](C)O)C(=O)N[C@@H](Cc2c[nH]c3ccccc23)C(=O)N[C@@H](CCC(N)=O)C(=O)N1)C(=O)N[C@@H](CC(N)=O)C(=O)NCC(N)=O,< 10,60 to 120,< 10,60 to 120
CC(=O)NCCCC[C@H](NC(=O)[C@](C)(CO)NC(=O)[C@H](Cc1ccc2ccccc2c1)NC(=O)[C@H](Cc1ccc(OCCN)cc1)NC(=O)[C@@H]1CSCC[C@H](NC(C)=O)C(=O)N[C@@H](CCC(N)=O)C(=O)N[C@@H]([C@@H](C)O)C(=O)N[C@@H](Cc2c[nH]c3ccccc23)C(=O)N[C@@H](CCC(N)=O)C(=O)N1)C(=O)N[C@@H](CC(N)=O)C(=O)NCC(N)=O,< 10,< 60,< 10,120 to 180
CC(=O)NCCCC[C@H](NC(=O)[C@](C)(CCCN)NC(=O)[C@H](Cc1ccc2ccccc2c1)NC(=O)[C@H](Cc1ccc(OCCN)cc1)NC(=O)[C@@H]1CSCC[C@H](NC(C)=O)C(=O)N[C@@H](CCC(N)=O)C(=O)N[C@@H]([C@@H](C)O)C(=O)N[C@@H](Cc2c[nH]c3ccccc23)C(=O)N[C@@H](CCC(N)=O)C(=O)N1)C(=O)N[C@@H](CC(N)=O)C(=O)NCC(N)=O,< 10,180 to 360,< 10,180 to 360
CC(=O)NCCCC[C@H](NC(=O)C(C)(C)NC(=O)[C@H](Cc1ccc2ccccc2c1)NC(=O)[C@H](Cc1ccc(OCCN)cc1)NC(=O)[C@@H](NC(=O)[C@H](CCC(N)=O)NC(=O)[C@H](Cc1c[nH]c2ccccc12)NC(=O)[C@@H](NC(=O)[C@H](CCC(N)=O)NC(=O)[C@@H](NC(C)=O)C(C)(C)S)[C@@H](C)O)C(C)(C)S)C(=O)N[C@@H](CC(N)=O)C(=O)N[C@@H](CCC(N)=O)C(N)=O,< 10,> 360,< 10,> 360
CC(=O)NCCCC[C@H](NC(=O)[C@](C)(CCCCN)NC(=O)[C@H](Cc1c[nH]c2ccccc12)NC(=O)[C@H](Cc1ccc(O)cc1)NC(=O)[C@@H](NC(=O)[C@H](CCC(N)=O)NC(=O)[C@H](Cc1c[nH]c2ccccc12)NC(=O)[C@@H](NC(=O)[C@H](CCC(N)=O)NC(=O)[C@@H](NC(C)=O)C(C)(C)S)[C@@H](C)O)C(C)(C)S)C(=O)N[C@@H](CC(N)=O)C(=O)NCC(N)=O,100 to 1000,> 360,25 to 100,> 360
CC(=O)N[C@H]1CCSC[C@@H](C(=O)N[C@@H](Cc2ccc(OCCN)cc2)C(=O)N[C@@H](Cc2ccc3ccccc3c2)C(=O)NC(C)(C)C(=O)N[C@@H](CCC(=O)O)C(=O)N[C@@H](CC(N)=O)C(=O)NCC(N)=O)NC(=O)[C@H](CCC(N)=O)NC(=O)[C@H](Cc2c[nH]c3ccccc23)NC(=O)[C@H]([C@@H](C)O)NC(=O)[C@H](CCC(N)=O)NC1=O,< 10,< 60,< 10,120 to 180
CC[C@](C)(NC(=O)[C@H](Cc1ccc2ccccc2c1)NC(=O)[C@H](Cc1ccc(OCCN)cc1)NC(=O)[C@@H]1CSCC[C@H](NC(C)=O)C(=O)N[C@@H](CCC(N)=O)C(=O)N[C@@H]([C@@H](C)O)C(=O)N[C@@H](Cc2c[nH]c3ccccc23)C(=O)N[C@@H](CCC(N)=O)C(=O)N1)C(=O)N[C@@H](CCCCNC(C)=O)C(=O)N[C@@H](CC(N)=O)C(=O)NCC(N)=O,< 10,60 to 120,< 10,< 60
CC(=O)NCCCC[C@](C)(NC(=O)[C@H](Cc1ccc2ccccc2c1)NC(=O)[C@H](Cc1ccc(OCCNC(C)=O)cc1)NC(=O)[C@@H](NC(=O)[C@H](CCC(N)=O)NC(=O)[C@H](Cc1c[nH]c2ccccc12)NC(=O)[C@@H](NC(=O)[C@H](CCC(N)=O)NC(=O)[C@@H](NC(C)=O)C(C)(C)S)[C@@H](C)O)C(C)(C)S)C(=O)N[C@@H](CCC(=O)O)C(=O)N[C@@H](CC(N)=O)C(=O)NCC(N)=O,10 to 25,180 to 360,< 10,> 360
CC(=O)NCCCC[C@](C)(NC(=O)[C@H](Cc1ccc2ccccc2c1)NC(=O)[C@H](Cc1ccc(OCCNC(C)=O)cc1)NC(=O)[C@@H](NC(=O)[C@H](CCC(N)=O)NC(=O)[C@H](Cc1c[nH]c2ccccc12)NC(=O)[C@@H](NC(=O)[C@H](CCC(N)=O)NC(=O)[C@@H](NC(C)=O)C(C)(C)S)[C@@H](C)O)C(C)(C)S)C(=O)N[C@@H](CCC(=O)O)C(=O)N[C@@H](CC(N)=O)C(=O)N[C@@H](C)C(N)=O,10 to 25,> 360,< 10,> 360
CC(=O)N[C@H]1CCSC[C@@H](C(=O)N[C@@H](Cc2ccc(OCCN)cc2)C(=O)N[C@@H](Cc2c[nH]c3ccccc23)C(=O)N[C@@](C)(CC(C)C)C(=O)N[C@@H](CCC(=O)O)C(=O)N[C@@H](CC(N)=O)C(=O)NCC(N)=O)NC(=O)[C@H](CCC(N)=O)NC(=O)[C@H](Cc2c[nH]c3ccccc23)NC(=O)[C@H]([C@@H](C)O)NC(=O)[C@H](CCC(N)=O)NC1=O,< 10,> 360,< 10,180 to 360
CC(=O)NCCCC[C@H](NC(=O)C(C)(C)NC(=O)[C@H](Cc1ccc2ccccc2c1)NC(=O)[C@H](Cc1ccc(OCCN)cc1)NC(=O)[C@@H](NC(=O)[C@H](CCC(N)=O)NC(=O)[C@H](Cc1c[nH]c2ccccc12)NC(=O)[C@@H](NC(=O)[C@H](CCC(N)=O)NC(=O)[C@@H](NC(C)=O)C(C)(C)S)[C@@H](C)O)C(C)(C)S)C(=O)N[C@@H](CC(N)=O)C(=O)N[C@@H](CC(N)=O)C(N)=O,< 10,120 to 180,< 10,180 to 360
CC(=O)NCCCC[C@](C)(NC(=O)[C@H](Cc1ccc2ccccc2c1)NC(=O)[C@H](Cc1ccc(OCCNC(C)=O)cc1)NC(=O)[C@@H](NC(=O)[C@H](CCC(N)=O)NC(=O)[C@H](Cc1c[nH]c2ccccc12)NC(=O)[C@@H](NC(=O)[C@H](CNC(C)=O)NC(=O)[C@@H](NC(C)=O)C(C)(C)S)[C@@H](C)O)C(C)(C)S)C(=O)N[C@@H](CCC(=O)O)C(=O)N[C@@H](CC(N)=O)C(=O)NCC(N)=O,10 to 25,> 360,< 10,> 360
CC(=O)NCCCC[C@H](NC(=O)C(C)(C)NC(=O)[C@H](Cc1ccc2ccccc2c1)NC(=O)[C@H](Cc1ccc(OCCNC(C)=O)cc1)NC(=O)[C@@H](NC(=O)[C@H](CCC(N)=O)NC(=O)[C@H](Cc1c[nH]c2ccccc12)NC(=O)[C@@H](NC(=O)[C@H](CCC(N)=O)NC(=O)[C@@H](NC(C)=O)C(C)(C)S)[C@@H](C)O)C(C)(C)S)C(=O)N[C@@H](CC(N)=O)C(=O)N[C@@H](CC(N)=O)C(N)=O,< 10,> 360,< 10,> 360
CC(=O)NCCCC[C@H](NC(=O)C(C)(C)NC(=O)[C@H](Cc1ccc2ccccc2c1)NC(=O)[C@H](Cc1ccc(OCCNC(C)=O)cc1)NC(=O)[C@@H](NC(=O)[C@H](CCC(N)=O)NC(=O)[C@H](Cc1c[nH]c2ccccc12)NC(=O)[C@@H](NC(=O)[C@H](CCC(N)=O)NC(=O)[C@@H](NC(C)=O)C(C)(C)S)[C@@H](C)O)C(C)(C)S)C(=O)N[C@@H](CC(N)=O)C(=O)N[C@@H](CCC(N)=O)C(N)=O,< 10,> 360,< 10,> 360
CC(=O)NCCCC[C@H](NC(=O)[C@](C)(CCCCNC(C)=O)NC(=O)[C@H](Cc1ccc2ccccc2c1)NC(=O)[C@H](Cc1ccc(OCCNC(C)=O)cc1)NC(=O)[C@@H](NC(=O)[C@H](CCC(N)=O)NC(=O)[C@H](Cc1c[nH]c2ccccc12)NC(=O)[C@@H](NC(=O)[C@H](CCC(N)=O)NC(=O)[C@@H](NC(C)=O)C(C)(C)S)[C@@H](C)O)C(C)(C)S)C(=O)N[C@@H](CC(N)=O)C(=O)N[C@@H](CC(N)=O)C(N)=O,< 10,> 360,< 10,> 360
CC(=O)NCCOc1ccc(C[C@H](NC(=O)[C@@H](NC(=O)[C@H](CCC(N)=O)NC(=O)[C@H](Cc2c[nH]c3ccccc23)NC(=O)[C@@H](NC(=O)[C@H](CCC(N)=O)NC(=O)[C@@H](NC(C)=O)C(C)(C)S)[C@@H](C)O)C(C)(C)S)C(=O)N[C@@H](Cc2ccc3ccccc3c2)C(=O)N[C@@](C)(CC(C)C)C(=O)N[C@@H](CCC(N)=O)C(=O)N[C@@H](CC(N)=O)C(=O)N[C@@H](CC(N)=O)C(N)=O)cc1,< 10,> 360,< 10,> 360
